Laboratory results published in paper PMC7354843 (Journal of medicinal chemistry, 2020).

Experiment: In vivo pharmacokinetic study, plasma and liver, single oral dose in mice
Details: male, ICR, mouse, plasma, 80 mg/kg

AUC(0-inf): 508 ng·h/mL
Cmax: 17.2 ng/mL
SMILES: O=c1c2ccc(Oc3ccc(OC(F)(F)F)cc3)cc2[nH]c2cc(Cl)cc(F)c12 [Compound 26, 3-Chloro-1-fluoro-6-(4-(trifluoromethoxy)phenoxy)acridin-9(10H)-one]
